According to US20250163076A1, “SYNTHESIS OF BRUTON'S TYROSINE KINASE INHIBITORS” (JANSSEN PHARMACEUTICA NV, priority 2022, published 2025):
In brackets after ≈: the same amount, converted by molar mass. Like-named read-outs stand apart in the source and are kept apart here.

Tests used:
[1] = Rat oral bioavailability (% F); assay type: in vivo; conditions: for bioavailability: in vivo, oral
[2] = test system: B-cell activation via B-cell receptor in rat whole blood; test: Rat whole blood assay, anti-IgD stimulated B-cell activation; assay type: cell-based; conditions: for IC50: Rattus norvegicus, B-cell, anti-IgD stimulation
Experimental: (§1) The activity of Compound M was assessed in rat and human whole blood assays using anti-IgD and anti-IgM stimulation, respectively, to trigger B-cell activation via B-cell receptor.

[3] = human, plasma
[4] = Liver microsomes T1/2 (Table 3); assay type: in vitro ADME; conditions: species not given
[5] = Aqueous solubility at pH 2 and pH 7; assay type: physicochemical; conditions: for Solubility: aqueous medium, Table 5
BTK = BTK (Homo sapiens, UniProt Q06187); test: BTK covalent inhibition kinetics (KI, kinact, kinact/KI); assay type: biochemical
Sequence of BTK (Q06187 whole entry): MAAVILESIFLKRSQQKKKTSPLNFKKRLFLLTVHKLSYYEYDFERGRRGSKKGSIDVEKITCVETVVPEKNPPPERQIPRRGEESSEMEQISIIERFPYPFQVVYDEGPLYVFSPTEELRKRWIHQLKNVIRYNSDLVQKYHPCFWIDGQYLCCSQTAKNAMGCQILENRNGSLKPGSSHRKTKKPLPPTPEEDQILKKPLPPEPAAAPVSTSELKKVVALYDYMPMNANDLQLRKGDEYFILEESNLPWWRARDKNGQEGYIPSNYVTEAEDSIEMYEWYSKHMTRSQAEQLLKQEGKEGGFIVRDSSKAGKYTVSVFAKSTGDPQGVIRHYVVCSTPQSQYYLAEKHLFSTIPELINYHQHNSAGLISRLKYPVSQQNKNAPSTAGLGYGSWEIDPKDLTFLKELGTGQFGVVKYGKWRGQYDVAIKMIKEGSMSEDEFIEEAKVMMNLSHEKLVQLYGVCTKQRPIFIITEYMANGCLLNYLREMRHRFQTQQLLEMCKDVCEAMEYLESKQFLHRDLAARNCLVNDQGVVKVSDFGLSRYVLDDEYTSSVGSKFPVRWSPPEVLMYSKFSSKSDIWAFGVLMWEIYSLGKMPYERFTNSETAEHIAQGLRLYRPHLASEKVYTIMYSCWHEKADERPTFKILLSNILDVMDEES
Experimental: The development of the structure-activity relationship was conducted by characterizing the non-covalent affinity of each inhibitor for BTK (KI) and the first order rate constant for irreversible covalent bond formation (kinact). The second order rate constant kinact/KI ratio is used to assess the covalent inhibitor potency because it is independent of incubation time and substrate concentrations (Copeland, R. A. Evaluation of Enzyme Inhibitors in Drug Discovery: a Guide for Medicinal Chemists and Pharmacologists; 2nd ed.; Wiley: Hoboken, N.J., 2013).

[6] = test system: anti-IgM induced B cell activation in human whole blood; test: Human whole blood assay, anti-IgM induced B cell activation; assay type: cell-based; conditions: anti-IgM stimulation
Experimental: as §1

[7] = Epimerization kinetics / rotational energy barrier of atropisomers in solvents; assay type: physicochemical
Experimental: The rotational energy barrier of compound of Formula (II) atropisomers was estimated according to the method known in the art. The rotational barrier was determined in several solvents and their aqueous mixtures and the results are reported in Table 13, where an average value of 120.5 kJ mol^−1 or 28.8 kcal mol^−1, corresponding to epimerization half-lives of 63.8 and 4.0 months at 20° C. and 37° C., respectively, were obtained, placing this compound on the top segment of Class 2 atropisomers according to the classification systems known in the art. The rotational barrier is slightly influenced by the solvent and increases in the order 1-butanol<2-butanol<1-propanol<propylene carbonate. Additionally, increasing amounts of water increased substantially the rotational barrier in all solvents with the highest value obtained in 1-propanol/water 33/67 w/w % system. Unfortunately, due to the low aqueous solubility of compound of Formula (II) in water, epimerization studies could not be accurately conducted in pure water.
Enriched compound of Formula (II) of the P isomer was dissolved in the respective solvent to create a concentration of ˜1 wt % and was placed in a standard screw cap vial (1.8 mL) equipped with a magnetic stirring bar. Subsequently, the vial was placed in the heating block of a parallel reactor setup (Crystal16, Technobis B.V.) which was preheated to the desired temperature (80° C.-100° C., depending on the solvent). At given time intervals, small aliquot samples were taken in an HPLC vial, diluted, and the diastereomeric excess of the mixture was determined by an UPLC apparatus, equipped with an Acquity UPLC BEH C18 column (0.6 ml/min, gradient 10 mM ammonium acetate acetonitrile 95-5 v/v % and acetonitrile at 35° C.). The time points and corresponding decay of diastereomeric excess (d.e.) were plotted as t vs ln (1/d.e.) to determine the interconversion rate constant, rotational energy barrier and epimerization half-life at the respective solvent and temperature:
[formula] [formula] [formula] • where [P], [M] are the concentrations of the P and M isomers, respectively, ke is the interconversion rate constant (s^−1), ΔGe^‡ is the rotational energy barrier (KJ mol^−1), T is the absolute temperature, kB, h and R are the Boltzmann, Planck and universal gas constants, respectively and t1/2 is the epimerization half-life. An example of the data treatment and determination procedure for ke is shown in FIG. 9 for propylene carbonate system at 100° C.

[8] = as above; assay type: physicochemical; conditions: buffer, t1/2 at 100° C.
[9] = Human liver microsomes T1/2; assay type: in vitro ADME; conditions: human, liver microsomes; Table 5
PPB % free, human = conditions: plasma
PPB % free, dog = assay type: in vitro ADME; conditions: plasma
Mouse CD69 cell = test: Mouse CD69 splenocyte assay; assay type: cell-based
PPB % free, rat = assay type: in vitro ADME; conditions: plasma
PPB % free, cyno = assay type: in vitro ADME; conditions: cynomolgus monkey, plasma
[10] = Table 5, average of 2 independent determinations (± SD)

For `C=CC(=O)N1CC[C@@H](NC(=O)c2sc3nccc4c3c2NC(=O)N4c2ccc(Oc3ccccc3)cc2C)C1` [Compound A], the “Rat % F (1 g/kg, crystalline suspension)” value ([1]; 1 g/kg, crystalline suspension) was <1%, the bioavailability ([1]; 1 g/kg, crystalline suspension, read-out: Rat % F (1 g/kg, crystalline suspension)) was < 1% and the bioavailability ([1]; 20% HP-β-CD solution, read-out: Rat % F (20% HP-β-CD solution)) was 29.7%. For the same compound, the IC50 [2] was 130 ± 11 nM, the PPB % free [3] was 0.16% and the “Liver microsomes T1/2” value ([4]; first of the two values printed 23/40) was 0.016 days. The half-life ([4]; liver microsomes, second of the two values printed 23/40) was 0.0278 days, the “pH 2 solubility” value ([5]; Table 3, pH 2) was <4/<4 μM and the “pH 7 solubility” value ([5]; Table 3, pH 7) was <4/<4 μM. For the same compound, the “pH 2 solubility” value ([5]; Table 6, pH 2) was <4/<4 μM, the “pH 7 solubility” value ([5]; Table 6, pH 7) was <4/<4 μM and the Ki (BTK; Table 3, average of two independent determinations (±SD)) was 28.8 ± 21 nM. For the same compound, the IC50 [6] was 84 ± 39 nM.
With `C=CC(=O)N[C@H]1CCC[C@H]1NC(=O)c1sc2nccc3c2c1NC(=O)N3c1cnc(CC(C)C)cc1C` [Formula (II), N-((1R,2S)-2-acrylamidocyclopentyl)-5-(6-isobutyl-4-methylpyridin-3-yl)-4-oxo-4,5-dihydro-3H-1-thia-3,5,8-triazaacenaphthylene-2-carboxamide] the ΔG ([7]; 1-butanol) was 28.49 kcal/mol, the half-life ([7]; 1-butanol, t1/2 at 20° C.) was 1100 days and the ΔG ([7]; 1-butanol/water 85/15 w/w %) was 28.68 kcal/mol. For the same compound, the half-life ([7]; 1-butanol/water 85/15 w/w %, t1/2 at 20° C.) was 1460 days, the ΔG ([7]; 1-propanol) was 28.7 kcal/mol and the half-life ([7]; 1-propanol, t1/2 at 20° C.) was 1460 days. It also gave a ΔG ([7]; 1-propanol/water 33/67 w/w %) of 29.09 kcal/mol, a half-life ([7]; 1-propanol/water 33/67 w/w %, t1/2 at 20° C.) of 3290 days and a ΔG ([7]; 1-propanol/water 50/50 w/w %) of 28.97 kcal/mol. The half-life ([7]; 1-propanol/water 50/50 w/w %, t1/2 at 20° C.) was 2560 days, the ΔG ([7]; 1-propanol/water 67/33 w/w %) was 28.85 kcal/mol and the half-life ([7]; 1-propanol/water 67/33 w/w %, t1/2 at 20° C.) was 2190 days. It also gave a ΔG ([7]; 1-propanol/water 80/20 w/w %) of 28.82 kcal/mol, a half-life ([7]; 1-propanol/water 80/20 w/w %, t1/2 at 20° C.) of 2190 days and a ΔG ([7]; 2-MeTHF) of 28.54 kcal/mol. It also gave a half-life ([7]; 2-MeTHF, t1/2 at 20° C.) of 1100 days, a ΔG ([7]; 2-butanol) of 28.54 kcal/mol and a half-life ([7]; 2-butanol, t1/2 at 20° C.) of 1100 days. For the same compound, the ΔG ([7]; 2-butanol/water 70/30 w/w %) was 28.78 kcal/mol, the half-life ([7]; 2-butanol/water 70/30 w/w %, t1/2 at 20° C.) was 1830 days and the ΔG ([7]; 3-methyl-1-butanol) was 28.39 kcal/mol. The half-life ([7]; 3-methyl-1-butanol, t1/2 at 20° C.) was 1100 days, the ΔG ([7]; 3-methyl-1-butanol/water 91/9 w/w %) was 28.61 kcal/mol and the half-life ([7]; 3-methyl-1-butanol/water 91/9 w/w %, t1/2 at 20° C.) was 1460 days. It also gave a ΔG ([7]; Acetonitrile) of 29.16 kcal/mol, a half-life ([7]; Acetonitrile, t1/2 at 20° C.) of 3650 days and a ΔG ([7]; EA) of 28.59 kcal/mol. It also gave a half-life ([7]; EA, t1/2 at 20° C.) of 1460 days, a ΔG ([7]; EtOH) of 28.99 kcal/mol and a half-life ([7]; EtOH, t1/2 at 20° C.) of 2560 days. The ΔG ([7]; IPA) was 28.87 kcal/mol, the half-life ([7]; IPA, t1/2 at 20° C.) was 2190 days and the ΔG ([7]; IPAC) was 28.73 kcal/mol. It also gave a half-life ([7]; IPAC, t1/2 at 20° C.) of 1830 days, a ΔG ([7]; MEK) of 28.8 kcal/mol and a half-life ([7]; MEK, t1/2 at 20° C.) of 1830 days. For the same compound, the ΔG ([7]; MIBK) was 28.54 kcal/mol, the half-life ([7]; MIBK, t1/2 at 20° C.) was 1100 days and the ΔG ([7]; Propylene carbonate) was 28.9 kcal/mol. For the same compound, the ΔG ([7]; Toluene) was 30.02 kcal/mol, the half-life ([7]; buffer, t1/2 at 85° C.) was 0.156 days and the half-life ([7]; buffer, t1/2 at 120° C.) was 0.00417 days. The half-life ([7]; propylene carbonate, t1/2 at 20° C.) was 2190 days, the ΔG ([7]; propylene carbonate/water 93/7 w/w %) was 28.94 kcal/mol and the half-life ([7]; propylene carbonate/water 93/7 w/w %, t1/2 at 20° C.) was 2560 days. For the same compound, the half-life [8] was 0.0299 days.
In the case of `C=CC(=O)N[C@H]1CCC[C@H]1NC(=O)c1sc2nccc3c2c1NC(=O)N3c1cnc(CC(C)C)cc1C` (single isomer, unassigned) [Compound M], the IC50 [2] is reported as 41 ± 12 nM, the “more potent in rat whole blood” value ([2]; compared to Compound A) is reported as 3 fold and the “pH 2 solubility” value ([5]; Table 6, pH 2) is reported as 320 μM. For the same compound, the “pH 7 solubility” value ([5]; Table 6, pH 7) was 7 μM, the Solubility ([5]; aqueous buffer, pH 7, read-out: Solubility pH 7) was 7 µM (≈ 3.63 µg/mL) and the Solubility ([5]; simulated gastric fluid, pH 2, read-out: Solubility pH 2) was 320 µM (≈ 166 µg/mL). The half-life [9] was 0.0264 days, the fraction unbound (PPB % free, human) was 0.031 and the fraction unbound (PPB % free, dog) was 0.063. For the same compound, the IC50 (Mouse CD69 cell) was 99 ± 68 nM, the Ki (BTK; [10]) was 48.5 ± 2.9 nM and the kinact (BTK; [10]) was 0.000348 s⁻¹. For the same compound, the kinact/KI (BTK; Table 5, read-out: kinact/KI) was 7290 ± 590 M⁻¹ s⁻¹, the IC50 [6] was 89 ± 12 nM and the fraction unbound (PPB % free, rat) was 0.037. It also gave a fraction unbound (PPB % free, cyno) of 0.032.
